Results filed as inconclusive are left out.
Tested on: nude mice, HT29 intrarenal xenograft, tumor weight T/C
Test: NCI In Vivo Anticancer Drug Screen. Data for tumor model HT29;CX-1 Human Adenocarcinoma (MER+) (intrarenal inoculation) in NU/NU Swiss (nude) mice
Settings: endpoint: mean tumor weight change, higher = larger tumour
How it was run: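 Endpoint measured as tumor size or survival; ratio reported is treated group over vehicle controls.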

[1] = dose: 300.0 mg/kg/injection, schedule: Q04DX004 (sc), vehicle: Klucel (hydroxypropylcellulose) (HPC)
[2] = dose: 300.0 mg/kg/injection, schedule: Q04DX004 (sc), vehicle: saline with Tween-80
[3] = dose: 1200.0 mg/kg/injection, schedule: Q04DX004 (sc), vehicle: saline with Tween-80
[4] = dose: 200.0 mg/kg/injection, schedule: Q01DX010 (sc), vehicle: Klucel (hydroxypropylcellulose) (HPC)
[5] = dose: 150.0 mg/kg/injection, schedule: Q04DX004 (sc), vehicle: saline with Tween-80

C=C(C)[C@]12CC(C)C34OC(/C=C\C=C\CCCCCCCCC)(O[C@@H]1[C@@H]3[C@@H]1O[C@]1(CO)[C@@H](O)[C@]1(O)C(=O)C(C)=C[C@@H]41)O2 (stereo not given in full)
T/C (dose: 0.38 mg/kg/injection, schedule: Q04DX004 (sc), vehicle: distilled water + alcohol): 73 % of control | T/C (dose: 0.75 mg/kg/injection, schedule: Q04DX004 (sc), vehicle: distilled water + alcohol): 40 % of control | T/C (dose: 1.5 mg/kg/injection, schedule: Q04DX004 (sc), vehicle: distilled water + alcohol): 63 % of control | T/C (dose: 3.0 mg/kg/injection, schedule: Q04DX004 (sc), vehicle: distilled water + alcohol): 37 % of control

Cc1cc2c(c3oc(C4(C)OC4C4OC4C)cc(=O)c13)C(=O)c1c(O)c(C3CC(C)(N(C)C)C(O)C(C)O3)cc(C3CC(N(C)C)C(O)C(C)O3)c1C2=O (stereo not given)
T/C (dose: 0.13 mg/kg/injection, schedule: Q01DX010 (sc), vehicle: saline): 50 % of control

NC(=O)c1ncn(C2OC(CO)C(O)C2O)c1O (stereo not given)
T/C (dose: 37.5 mg/kg/injection, schedule: Q04DX004 (sc), vehicle: Klucel (hydroxypropylcellulose) (HPC)): 76 % of control | T/C (dose: 75.0 mg/kg/injection, schedule: Q04DX004 (sc), vehicle: Klucel (hydroxypropylcellulose) (HPC)): 77 % of control | T/C (dose: 150.0 mg/kg/injection, schedule: Q04DX004 (sc), vehicle: Klucel (hydroxypropylcellulose) (HPC)): 71 % of control | T/C [1]: 62 % of control

COc1cccc2c1C(=O)c1c(O)c3c(c(O)c1C2=O)C[C@@](O)(/C(C)=N\NC(=O)CO)C[C@@H]3OC1CC(N)C(O)C(C)O1 (stereo not given in full)
T/C (dose: 15.63 mg/kg/injection, schedule: Q04DX004 (sc), vehicle: saline): 52 % of control | T/C (dose: 31.25 mg/kg/injection, schedule: Q04DX004 (sc), vehicle: saline): 16 % of control | T/C (dose: 62.5 mg/kg/injection, schedule: Q04DX004 (sc), vehicle: saline): 18 % of control

CCc1c(CC(=O)O)c2cc(C)ccc2n1Cc1ccc(Cl)cc1
T/C (dose: 100.0 mg/kg/injection, schedule: Q04DX004 (sc), vehicle: Klucel (hydroxypropylcellulose) (HPC)): 77 % of control | T/C (dose: 200.0 mg/kg/injection, schedule: Q04DX004 (sc), vehicle: Klucel (hydroxypropylcellulose) (HPC)): 74 % of control | T/C (dose: 400.0 mg/kg/injection, schedule: Q04DX004 (sc), vehicle: Klucel (hydroxypropylcellulose) (HPC)): 86 % of control | T/C (dose: 800.0 mg/kg/injection, schedule: Q04DX004 (sc), vehicle: Klucel (hydroxypropylcellulose) (HPC)): 97 % of control

OCCO
T/C (dose: 4.0 % in 0.5 ml injection vol, schedule: Q04DX004 (sc), vehicle: other): 85 % of control | T/C (dose: 8.0 % in 0.5 ml injection vol, schedule: Q04DX004 (sc), vehicle: other): 46 % of control | T/C (dose: 16.0 % in 0.5 ml injection vol, schedule: Q04DX004 (sc), vehicle: other): 26 % of control

CCC(CC)COC(=O)c1ccccc1C(=O)OCC(CC)CC
T/C [2]: 94 % of control | T/C (dose: 600.0 mg/kg/injection, schedule: Q04DX004 (sc), vehicle: saline with Tween-80): 53 % of control | T/C [3]: 81 % of control | T/C (dose: 2400.0 mg/kg/injection, schedule: Q04DX004 (sc), vehicle: saline with Tween-80): 71 % of control

OC(CBr)C(O)C(O)C(O)CBr (stereo not given)
T/C (dose: 15.0 mg/kg/injection, schedule: Q01DX010 (sc), vehicle: Klucel (hydroxypropylcellulose) (HPC)): 82 % of control | T/C (dose: 30.0 mg/kg/injection, schedule: Q01DX010 (sc), vehicle: Klucel (hydroxypropylcellulose) (HPC)): 44 % of control | T/C (dose: 120.0 mg/kg/injection, schedule: Q01DX010 (sc), vehicle: Klucel (hydroxypropylcellulose) (HPC)): 43 % of control | T/C [4]: 101 % of control | T/C (dose: 400.0 mg/kg/injection, schedule: Q01DX010 (sc), vehicle: Klucel (hydroxypropylcellulose) (HPC)): 59 % of control

CC(=O)OC1C(O)C(C)OC(OC2C(OC(=O)C3CCC4C(C3)OC3(CC(OC(=O)/C=C/c5ccccc5)C(C)CO3)C43CO3)OC(C)C(O)C2OC(C)=O)C1O (stereo not given)
T/C (dose: 15.0 mg/kg/injection, schedule: Q04DX004 (sc), vehicle: distilled water + Tween-80): 100 % of control | T/C (dose: 30.0 mg/kg/injection, schedule: Q04DX004 (sc), vehicle: distilled water + Tween-80): 62 % of control | T/C (dose: 60.0 mg/kg/injection, schedule: Q04DX004 (sc), vehicle: distilled water + Tween-80): 61 % of control | T/C (dose: 120.0 mg/kg/injection, schedule: Q04DX004 (sc), vehicle: distilled water + Tween-80): 91 % of control

CCCCn1cnc2c(=S)nc[nH]c21
T/C (dose: 150.0 mg/kg/injection, schedule: Q04DX004 (sc), vehicle: suspension in saline): 68 % of control | T/C (dose: 300.0 mg/kg/injection, schedule: Q04DX004 (sc), vehicle: suspension in saline): 120 % of control | T/C (dose: 600.0 mg/kg/injection, schedule: Q04DX004 (sc), vehicle: suspension in saline): 150 % of control

COC1CC(C)C(OC)C2=CC(=O)C=C(NC(=O)/C(C)=C/C=C\C(C)C(OC(N)=O)/C(C)=C\C(C)C1OC)C2=O (stereo not given)
T/C (dose: 12.5 mg/kg/injection, schedule: Q04DX004 (sc), vehicle: saline + alcohol): 99 % of control | T/C (dose: 25.0 mg/kg/injection, schedule: Q04DX004 (sc), vehicle: saline + alcohol): 73 % of control | T/C (dose: 50.0 mg/kg/injection, schedule: Q04DX004 (sc), vehicle: saline + alcohol): 53 % of control

Nc1cccc(=O)[nH]1
T/C (dose: 300.0 mg/kg/injection, schedule: Q04DX004 (sc), vehicle: saline): 115 % of control | T/C (dose: 600.0 mg/kg/injection, schedule: Q04DX004 (sc), vehicle: saline): 96 % of control | T/C (dose: 1200.0 mg/kg/injection, schedule: Q04DX004 (sc), vehicle: saline): 87 % of control | T/C (dose: 2400.0 mg/kg/injection, schedule: Q04DX004 (sc), vehicle: saline): 79 % of control

O=CN(SSN(C=O)C1CCCCC1)C1CCCCC1
T/C (dose: 100.0 mg/kg/injection, schedule: Q01DX010 (sc), vehicle: saline with Tween-80): 36 % of control | T/C (dose: 200.0 mg/kg/injection, schedule: Q01DX010 (sc), vehicle: saline with Tween-80): 178 % of control | T/C (dose: 400.0 mg/kg/injection, schedule: Q01DX010 (sc), vehicle: saline with Tween-80): 85 % of control | T/C (dose: 800.0 mg/kg/injection, schedule: Q01DX010 (sc), vehicle: saline with Tween-80): 90 % of control

O=C1C(O)=C(c2ccccc2)C(=O)C(O)=C1c1ccccc1
T/C (dose: 75.0 mg/kg/injection, schedule: Q04DX004 (sc), vehicle: saline): 95 % of control | T/C (dose: 150.0 mg/kg/injection, schedule: Q04DX004 (sc), vehicle: saline): 60 % of control

S=c1nc[nH]c2nc[nH]c12
T/C (dose: 12.5 mg/kg/injection, schedule: Q01DX010 (sc), vehicle: Klucel (hydroxypropylcellulose) (HPC)): 200 % of control | T/C (dose: 25.0 mg/kg/injection, schedule: Q01DX010 (sc), vehicle: Klucel (hydroxypropylcellulose) (HPC)): 81 % of control

c1cc(-c2cc3ccc(C4=NCCN4)cc3[nH]2)ccc1C1=NCCN1
T/C (dose: 25.0 mg/kg/injection, schedule: Q04DX004 (sc), vehicle: saline): 84 % of control | T/C (dose: 50.0 mg/kg/injection, schedule: Q04DX004 (sc), vehicle: saline): 154 % of control | T/C (dose: 100.0 mg/kg/injection, schedule: Q04DX004 (sc), vehicle: saline): 124 % of control

C[C@]12CC[C@@H]3c4ccc(O)cc4CC[C@H]3[C@@H]1CC[C@@H]2O
T/C [1]: 54 % of control | T/C (dose: 600.0 mg/kg/injection, schedule: Q04DX004 (sc), vehicle: Klucel (hydroxypropylcellulose) (HPC)): 75 % of control

C=CCNc1ccc(C)cc1
T/C (dose: 50.0 mg/kg/injection, schedule: Q01DX010 (sc), vehicle: Klucel (hydroxypropylcellulose) (HPC)): 105 % of control | T/C [4]: 86 % of control

O=c1n(CC2CO2)c(=O)n(CC2CO2)c(=O)n1CC1CO1 (stereo not given)
T/C (dose: 18.75 mg/kg/injection, schedule: Q04DX004 (sc), vehicle: saline with Tween-80): 42 % of control | T/C (dose: 25.0 mg/kg/injection, schedule: Q01DX010 (sc), vehicle: saline): 76 % of control | T/C (dose: 37.5 mg/kg/injection, schedule: Q04DX004 (sc), vehicle: saline with Tween-80): 33 % of control | T/C (dose: 50.0 mg/kg/injection, schedule: Q01DX010 (sc), vehicle: saline): 29 % of control

CNC(=O)OCc1c(COC(=O)NC)c(-c2ccccc2)n(C)c1-c1ccccc1
T/C (dose: 50.0 mg/kg/injection, schedule: Q04DX004 (sc), vehicle: distilled water + Tween-80): 44 % of control | T/C (dose: 200.0 mg/kg/injection, schedule: Q04DX004 (sc), vehicle: distilled water + Tween-80): 68 % of control | T/C (dose: 400.0 mg/kg/injection, schedule: Q04DX004 (sc), vehicle: distilled water + Tween-80): 104 % of control

COC1=CC(=O)C(OC)=C(OC)C1=O
T/C (dose: 38.0 mg/kg/injection, schedule: Q04DX004 (sc), vehicle: saline with Tween-80): 78 % of control | T/C (dose: 75.0 mg/kg/injection, schedule: Q04DX004 (sc), vehicle: saline with Tween-80): 88 % of control | T/C [5]: 89 % of control

CCCCCCC(=O)CC(SCC)c1ccccc1Cl (stereo not given)
T/C [5]: 94 % of control | T/C [2]: 92 % of control | T/C [3]: 99 % of control

Reference: PubChem BioAssay AID206 (DTP/NCI, 2004)
